Assay results published in patent US20190261630A1, “USE OF PYRAZIFLUMID FOR CONTROLLING SCLEROTINIA SPP IN SEED TREATMENT APPLICATIONS” (Bayer CropScience Aktiengesellschaft, priority 2016, published 2019).
Where two headings read alike, the source gives them in different places.

How the values were obtained:
Format in all cases: in vivo
dwarf beans = experiment: Damage on plants in spray test (Example B, Test 7); settings: spray treatment 100 mg ai/Liter, dwarf bean
Procedure: (§1) Solvent: 24.5 parts by weight of acetone • 24.5 parts by weight of dimethylacetamide
(§2) Emulsifier: 1 part by weight of alkylaryl polyglycol ether
(§3) To produce a suitable preparation of active compound, 1 part by weight of active compound is mixed with the stated amounts of solvent and emulsifier, and the concentrate is diluted with water to the desired concentration.
(§4) To test for preventive activity, unifoliate leaves of 10 day-old plants are sprayed with the preparation of active compound. After the spray coating has dried on, 2 small pieces of agar covered with growth of Sclerotinia sclerotiorum are placed on each leaf. The inoculated plants are placed in a darkened chamber at approximately 20° C. and a relative atmospheric humidity of 100%.

Sclerotinia sclerotiorum [1] = experiment: Spray test (dwarf beans), preventive control efficacy (Example B, Test 7); settings: spray treatment 100 mg ai/Liter, dwarf bean, 10 days old plants, incubation 3 days
Procedure: as §1, §2, §3, §4
3 days after the inoculation, the size of the lesions on the leaves is evaluated. 0% means an efficacy which corresponds to that of the untreated control, while an efficacy of 100% means that no disease is observed.

Sclerotinia sclerotiorum [2] = experiment: Seed treatment test (soybean) with current standards, control efficacy (Example B, Test 8); settings: soybean seed treatment 50 g a.i./100 kg seed, incubation 3 days, inoculation 27 days after sowing
Procedure: (§5) Soybean seeds, treated to the desired dosages with the active compound solved in N-methyl-2-pyrrolidon and diluted with water, were sown in 6×6 cm pots (one seed per pot) filled with 1:1 mixture of steamed loam soil and quartz sand.
(§6) The plants were grown at 24° C. and 90% relative humidity in a greenhouse. Ascospores of Sclerotinia sclerotiorum were collected from 3 month old asci. Whole aerial surface of 27 day-old seedlings were sprayed with water suspension of the ascospores. The plants were kept for 72 hours in the dark at 24° C. and a relative humidity of 99%.
(§7) Assessment consisted of evaluation of infected area of the unifoliate leaves. Zero % means infection which corresponds to that of the untreated check, while an efficacy of 100% means that no infection was observed.

soybean plants [3] = experiment: Damage on plants after seed treatment, emergence inhibition (Example B, Test 8); settings: soybean seed treatment 50 g a.i./100 kg seed
Procedure: as §5, §6

Sclerotinia sclerotiorum [4] = experiment: Seed treatment test, control efficacy against ascospore infection in soybean, greenhouse (Example A, Tests 1-6); settings: for pest or weed control at 70 g/100 kg seed / pest or weed control at 140 g/100 kg seed / pest or weed control at 35 g/100 kg seed: read-out: Sclerotinia sclerotiorum Control efficacy %; for pest or weed control at 25 g/100 kg seed: soybean seed treatment 25 g a.i./100 kg seed; for pest or weed control at 50 g/100 kg seed: soybean seed treatment 50 g a.i./100 kg seed; for pest or weed control at 10 g/100 kg seed: soybean seed treatment 10 g a.i./100 kg seed
Procedure: (§8) The test is performed under greenhouse conditions.
as §5
as §6, with “19-25-day-old” for “27 day-old”, “48-96” for “72”
as §7
The control efficacy is based on % infected leaf area.
Moreover, the tests were performed with different batches of plants.

soybean plants [5] = experiment: Damage on plants after seed treatment, relative growth inhibition in non-inoculated plants (Example A, Tests 1-6)
Procedure: as §8, §5
as §6, with “19-25-day-old” for “27 day-old”, “48-96” for “72”

[6] = Sclerotinia sclerotiorum, 48 h, Test 3, soybean seed treatment 70 g a.i./100 kg seed, incubation 2 days, inoculation 20 days after sowing
[7] = Sclerotinia sclerotiorum, 48 h, Test 3, soybean seed treatment 140 g a.i./100 kg seed, incubation 2 days, inoculation 20 days after sowing
[8] = Sclerotinia sclerotiorum, 72 h, Test 1, incubation 3 days, inoculation 19 days after sowing
[9] = Test 1, soybean seed treatment 25 g a.i./100 kg seed
[10] = Test 1, soybean seed treatment 50 g a.i./100 kg seed
[11] = Sclerotinia sclerotiorum, 96 h, Test 4, incubation 4 days, inoculation 25 days after sowing
[12] = Example A, soybean seed treatment
[13] = Sclerotinia sclerotiorum, 72 h, Test 6, soybean seed treatment 70 g a.i./100 kg seed, incubation 3 days, inoculation 22 days after sowing
[14] = Sclerotinia sclerotiorum, 72 h, Test 6, soybean seed treatment 140 g a.i./100 kg seed, incubation 3 days, inoculation 22 days after sowing
[15] = Test 3, soybean seed treatment 70 g a.i./100 kg seed
[16] = Test 6, soybean seed treatment 70 g a.i./100 kg seed
[17] = Test 6, soybean seed treatment 140 g a.i./100 kg seed
[18] = Sclerotinia sclerotiorum, 48 h, Test 3, incubation 2 days, inoculation 20 days after sowing
[19] = Sclerotinia sclerotiorum, 72 h, Test 6, incubation 3 days, inoculation 22 days after sowing
[20] = Sclerotinia sclerotiorum, 48 h, Test 5, incubation 2 days, inoculation 21 days after sowing

CON(C(=O)c1cn(C)nc1C(F)F)C(C)Cc1c(Cl)cc(Cl)cc1Cl (centres unmarked) [pydiflumetofen]
Damage on plants (in %) (dwarf beans): 0% | Sclerotinia sclerotiorum Control efficacy % (Sclerotinia sclerotiorum [1]): 100% | Sclerotinia sclerotiorum Control efficacy % (Sclerotinia sclerotiorum [2]): 0% | Damage on plants (emergence inhibition in %) (soybean plants [3]): 0%

Cc1nc2c(F)c(F)ccc2cc1Oc1cccc(F)c1C(C)(C)O
pest or weed control at 70 g/100 kg seed (Sclerotinia sclerotiorum [4]; Sclerotinia sclerotiorum, 96 h): 0% | pest or weed control at 140 g/100 kg seed (Sclerotinia sclerotiorum [4]; Sclerotinia sclerotiorum, 96 h): 99%

CC1(C)N=C(c2cnc3ccccc3c2)c2ccccc2C1(F)F [drawing 23]
pest or weed control at 70 g/100 kg seed (Sclerotinia sclerotiorum [4]; [6]): 72% | pest or weed control at 140 g/100 kg seed (Sclerotinia sclerotiorum [4]; [7]): 96%

CC(C)ON=C(CNC(=O)c1ccccc1C(F)(F)F)c1ncc(Cl)cc1Cl
pest or weed control at 25 g/100 kg seed (Sclerotinia sclerotiorum [4]; [8]): 5% | pest or weed control at 50 g/100 kg seed (Sclerotinia sclerotiorum [4]; [8]): 53% | Damage on plants (relative growth inhibition in non-inoculated plants compared to untreated plants: in %) (soybean plants [5]; [9]): 0% | Damage on plants (relative growth inhibition in non-inoculated plants compared to untreated plants: in %) (soybean plants [5]; [10]): 0%

O=S(=O)(Nc1ncc(C(F)(F)F)cc1Cl)c1ccccc1Cl
pest or weed control at 10 g/100 kg seed (Sclerotinia sclerotiorum [4]; [11]): 73% | pest or weed control at 50 g/100 kg seed (Sclerotinia sclerotiorum [4]; [11]): 70% | Damage on plants (relative growth inhibition in non-inoculated plants compared to untreated plants: in %) (soybean plants [5]; Test 4, soybean seed treatment 10 g a.i./100 kg seed): 17% | Damage on plants (relative growth inhibition in non-inoculated plants compared to untreated plants: in %) (soybean plants [5]; Test 4, soybean seed treatment 50 g a.i./100 kg seed): 8%

O=C(Nc1ccccc1-c1ccc(F)c(F)c1)c1nccnc1C(F)(F)F [Pyraziflumid]
control efficacy against ascospore infection of Sclerotinia Sclerotiorum (in words) (Sclerotinia sclerotiorum [4]; [12]): excellent control efficacy | pest or weed control at 70 g/100 kg seed (Sclerotinia sclerotiorum [4]; [6]): 87% | pest or weed control at 140 g/100 kg seed (Sclerotinia sclerotiorum [4]; [7]): 95% | pest or weed control at 75 g/100 kg seed (Sclerotinia sclerotiorum [4]; Sclerotinia sclerotiorum, 48 h, Test 5, soybean seed treatment 75 g a.i./100 kg seed, incubation 2 days, inoculation 21 days after sowing): 98% | pest or weed control at 25 g/100 kg seed (Sclerotinia sclerotiorum [4]; [8]): 96% | pest or weed control at 50 g/100 kg seed (Sclerotinia sclerotiorum [4]; [8]): 95% | pest or weed control at 70 g/100 kg seed (Sclerotinia sclerotiorum [4]; [13]): 36% | pest or weed control at 140 g/100 kg seed (Sclerotinia sclerotiorum [4]; [14]): 33% | pest or weed control at 70 g/100 kg seed (Sclerotinia sclerotiorum [4]; Sclerotinia sclerotiorum, 96 h, Test 2, soybean seed treatment 70 g a.i./100 kg seed, incubation 4 days, inoculation 22 days after sowing): 58% | pest or weed control at 140 g/100 kg seed (Sclerotinia sclerotiorum [4]; Sclerotinia sclerotiorum, 96 h, Test 2, soybean seed treatment 140 g a.i./100 kg seed, incubation 4 days, inoculation 22 days after sowing): 86% | pest or weed control at 70 g/100 kg seed (Sclerotinia sclerotiorum [4]; Sclerotinia sclerotiorum, 96 h, Test 4, soybean seed treatment 70 g a.i./100 kg seed, incubation 4 days, inoculation 25 days after sowing): 80% | pest or weed control at 140 g/100 kg seed (Sclerotinia sclerotiorum [4]; Sclerotinia sclerotiorum, 96 h, Test 4, soybean seed treatment 140 g a.i./100 kg seed, incubation 4 days, inoculation 25 days after sowing): 90% | damage on soybean plants (in words) (soybean plants [5]; [12]): without giving any damage | Damage on plants (relative growth inhibition in non-inoculated plants compared to untreated plants: in %) (soybean plants [5]; [9]): 0% | Damage on plants (relative growth inhibition in non-inoculated plants compared to untreated plants: in %) (soybean plants [5]; [10]): 0% | Damage on plants (relative growth inhibition in non-inoculated plants compared to untreated plants: in %) (soybean plants [5]; Test 2, soybean seed treatment 70 g a.i./100 kg seed): 0% | Damage on plants (relative growth inhibition in non-inoculated plants compared to untreated plants: in %) (soybean plants [5]; Test 2, soybean seed treatment 140 g a.i./100 kg seed): 0% | Damage on plants (relative growth inhibition in non-inoculated plants compared to untreated plants: in %) (soybean plants [5]; [15]): 0% | Damage on plants (relative growth inhibition in non-inoculated plants compared to untreated plants: in %) (soybean plants [5]; Test 3, soybean seed treatment 140 g a.i./100 kg seed): 0% | Damage on plants (relative growth inhibition in non-inoculated plants compared to untreated plants: in %) (soybean plants [5]; Test 4, soybean seed treatment 70 g a.i./100 kg seed): 0% | Damage on plants (relative growth inhibition in non-inoculated plants compared to untreated plants: in %) (soybean plants [5]; Test 4, soybean seed treatment 140 g a.i./100 kg seed): 0% | Damage on plants (relative growth inhibition in non-inoculated plants compared to untreated plants: in %) (soybean plants [5]; Test 5, soybean seed treatment 75 g a.i./100 kg seed): 0% | Damage on plants (relative growth inhibition in non-inoculated plants compared to untreated plants: in %) (soybean plants [5]; [16]): 0% | Damage on plants (relative growth inhibition in non-inoculated plants compared to untreated plants: in %) (soybean plants [5]; [17]): 30%

O=c1c2cc(F)ccc2nc(-n2cncn2)n1-c1ccc(Cl)cc1Cl [Fluquinconazole]
pest or weed control at 25 g/100 kg seed (Sclerotinia sclerotiorum [4]; [18]): 83% | pest or weed control at 50 g/100 kg seed (Sclerotinia sclerotiorum [4]; [18]): 86% | pest or weed control at 25 g/100 kg seed (Sclerotinia sclerotiorum [4]; [19]): 0% | pest or weed control at 50 g/100 kg seed (Sclerotinia sclerotiorum [4]; [19]): 2% | Damage on plants (relative growth inhibition in non-inoculated plants compared to untreated plants: in %) (soybean plants [5]; Test 3, soybean seed treatment 25 g a.i./100 kg seed): 0% | Damage on plants (relative growth inhibition in non-inoculated plants compared to untreated plants: in %) (soybean plants [5]; Test 3, soybean seed treatment 50 g a.i./100 kg seed): 0% | Damage on plants (relative growth inhibition in non-inoculated plants compared to untreated plants: in %) (soybean plants [5]; Test 6, soybean seed treatment 25 g a.i./100 kg seed): 0% | Damage on plants (relative growth inhibition in non-inoculated plants compared to untreated plants: in %) (soybean plants [5]; Test 6, soybean seed treatment 50 g a.i./100 kg seed): 0%

CC(O)(Cn1cncn1)c1ccc(Oc2ccc(Cl)cc2)cc1C(F)(F)F (centres unmarked) [Mefentrifluconazole]
pest or weed control at 10 g/100 kg seed (Sclerotinia sclerotiorum [4]; [20]): 90% | pest or weed control at 25 g/100 kg seed (Sclerotinia sclerotiorum [4]; [20]): 84% | Damage on plants (relative growth inhibition in non-inoculated plants compared to untreated plants: in %) (soybean plants [5]; Test 5, soybean seed treatment 10 g a.i./100 kg seed): 0% | Damage on plants (relative growth inhibition in non-inoculated plants compared to untreated plants: in %) (soybean plants [5]; Test 5, soybean seed treatment 25 g a.i./100 kg seed): 10%

O=C(NCCc1ncc(C(F)(F)F)cc1Cl)c1ccccc1C(F)(F)F [fluopyram]
Damage on plants (in %) (dwarf beans): 0% | Sclerotinia sclerotiorum Control efficacy % (Sclerotinia sclerotiorum [1]): 100% | Sclerotinia sclerotiorum Control efficacy % (Sclerotinia sclerotiorum [2]): 68% | Damage on plants (emergence inhibition in %) (soybean plants [3]): 25%

CC1(C)N=C(c2cnc3ccccc3c2)c2ccccc2C1(F)F [Quinofumelin]
pest or weed control at 70 g/100 kg seed (Sclerotinia sclerotiorum [4]; [13]): 16% | pest or weed control at 140 g/100 kg seed (Sclerotinia sclerotiorum [4]; [14]): 1% | Damage on plants (relative growth inhibition in non-inoculated plants compared to untreated plants: in %) (soybean plants [5]; [16]): 0% | Damage on plants (relative growth inhibition in non-inoculated plants compared to untreated plants: in %) (soybean plants [5]; [17]): 0%

N#Cc1ccccc1NC(=O)c1snc(Cl)c1Cl [Isotianil]
pest or weed control at 35 g/100 kg seed (Sclerotinia sclerotiorum [4]; Sclerotinia sclerotiorum, 48 h): 46% | pest or weed control at 70 g/100 kg seed (Sclerotinia sclerotiorum [4]; Sclerotinia sclerotiorum, 48 h): 65% | pest or weed control at 35 g/100 kg seed (Sclerotinia sclerotiorum [4]; Sclerotinia sclerotiorum, 72 h): 15% | pest or weed control at 70 g/100 kg seed (Sclerotinia sclerotiorum [4]; Sclerotinia sclerotiorum, 72 h): 18% | Damage on plants (relative growth inhibition in non-inoculated plants compared to untreated plants: in %) (soybean plants [5]; Test 3, soybean seed treatment 35 g a.i./100 kg seed): 11% | Damage on plants (relative growth inhibition in non-inoculated plants compared to untreated plants: in %) (soybean plants [5]; [15]): 0% | Damage on plants (relative growth inhibition in non-inoculated plants compared to untreated plants: in %) (soybean plants [5]; Test 6, soybean seed treatment 35 g a.i./100 kg seed): 0% | Damage on plants (relative growth inhibition in non-inoculated plants compared to untreated plants: in %) (soybean plants [5]; [16]): 0%
